Results: patent publication EP1016405A2, “Arylating medicaments” (Radopath Pharmaceuticals International Limited, priority 1993, dated 1994)
Where “and” joins values, the source holds several entries; their conditions need not be identical. Identical values can stand only once. Like-named read-outs stand apart in the source and are kept apart here.

Experiments:
[1] = in vitro; settings: CC50 (Toxicity)
[2] = tested on: HIV-1RF; assay: Acute Infection Assay, HIV core antigen ELISA in C8166 cells; assay type: cell-based, human immunodeficiency virus
[3] = tested on: MAC15A (murine adenocarcinoma colon); assay: Anti-tumour activity against MAC15A ascites tumour, survival T/C%; assay type: in vivo, mice; settings: for response vs control in vivo at 100 mg/kg: Mus musculus, MAC15A, read-out: T/C%; for T/C%: mouse, in vivo
[4] = Human immunodeficiency virus 1, C8166, read-out: IC50 (Antiviral)
[5] = Human immunodeficiency virus 1, C8166, Table 11.4, Against HIV-1RF, single assays, unit inferred, read-out: IC50 (Antiviral)

O=[N+]([O-])c1c(Cl)c(Cl)c(Cl)c(Cl)c1Cl [Compound E14, pentachloronitrobenzene]
CC50 [1]: > 200 µM
IC50 [2, 4]: > 200 µM

O=[N+]([O-])c1cc(S(=O)(=O)O)ccc1Cl [Compound S4, 4-chloro-3-nitrobenzenesulfonic acid]
CC50 [1]: > 200 µM
IC50 [2, 5]: > 200 µM
response vs control in vivo at 100 mg/kg ([3]; ip): 140%

NC(=O)c1cc([N+](=O)[O-])c(N)c([N+](=O)[O-])c1 [4-amino-3,5-dinitrobenzamide]
response vs control in vivo at 100 mg/kg ([3]; ip, 24 h): 100%

O=[N+]([O-])c1ccc(Cl)cc1[N+](=O)[O-] [Compound E1, 1-chloro-3,4-dinitrobenzene]
CC50 [1]: 10 µM
SI (Selectivity Index) [2]: 2.5
IC50 ([2]; read-out: IC50 (Antiviral)): 4 µM
T/C% ([3]; ip): 200%

O=[N+]([O-])c1cc(Cl)cc(Cl)c1[N+](=O)[O-] [Compound E9, 1,5-dichloro-2,3-dinitrobenzene]
response vs control in vivo at 100 mg/kg ([3]; ip): 386%

O=[N+]([O-])c1cc(Cl)ccc1Cl [Compound E6, 2,5-dichloronitrobenzene]
CC50 [1]: > 200 µM
SI (Selectivity Index) [2]: 2
IC50 [2, 4]: 110 µM

O=[N+]([O-])c1ccc(Cl)c(Cl)c1Cl [Compound E10, 1,2,3-trichloro-4-nitrobenzene]
CC50 [1]: 90 µM
IC50 [2, 4]: > 200 µM

O=[N+]([O-])c1ccc(Cl)c([N+](=O)[O-])c1 [Compound E2, 1-chloro-2,4-dinitrobenzene]
CC50 [1]: 13 µM
SI (Selectivity Index) [2]: 3
IC50 [2, 4]: 4 µM
response vs control in vivo at 100 mg/kg ([3]; ip): 188%

Nc1ccc([N+](=O)[O-])cc1[N+](=O)[O-] [2,4-dinitroaniline]
T/C% ([3]; ip): 100%

O=C(O)c1cc([N+](=O)[O-])cc([N+](=O)[O-])c1 [3,5-dinitrobenzoic acid]
T/C% ([3]; ip): 100%

COc1ccc(Cl)c([N+](=O)[O-])c1 [4-chloro-3-nitroanisole]
response vs control in vivo at 100 mg/kg ([3]; ip): 100%

O=[N+]([O-])c1ccc(S(=O)(=O)O)c([N+](=O)[O-])c1 [Compound S8, 2,4-dinitrobenzenesulfonic acid]
CC50 [1]: 100 µM
IC50 ([2]; read-out: IC50 (Antiviral)): 40 µM and 30 µM
T/C% ([3]; ip): 171%

O=S(=O)(O)c1ccc(Cl)cc1 [Compound S5, 4-chlorobenzenesulfonic acid]
CC50 [1]: > 200 µM
IC50 [2, 5]: > 200 µM
response vs control in vivo at 100 mg/kg ([3]; median survival, test vs solvent control, 100 mg kg^-1 ip per day, schedule days 1,2,3,4,5): 443%

Cc1ccc(S(=O)(=O)O)cc1[N+](=O)[O-] [3-nitro-4-methylbenzenesulfonic acid]
response vs control in vivo at 100 mg/kg ([3]; ip): 229%

4-glutathionyl-3,5-dinitrobenzene
T/C% ([3]; ip): 113%

Nc1c([N+](=O)[O-])cccc1[N+](=O)[O-] [2,6-dinitroaniline]
T/C% ([3]; ip): 214%

O=C(O)c1ccc([N+](=O)[O-])cc1[N+](=O)[O-] [2,4-dinitrobenzoic acid]
T/C% ([3]; ip): 100%

O=[N+]([O-])c1cc(Cl)c(Cl)cc1[N+](=O)[O-] [Compound E3, 1,2-dichloro-4,5-dinitrobenzene]
CC50 [1]: 7 µM
SI (Selectivity Index) [2]: 1.5
IC50 ([2]; read-out: IC50 (Antiviral)): 4 µM
T/C% ([3]; ip): 171%

O=[N+]([O-])c1c(Cl)cc(Cl)c(Cl)c1Cl [Compound E13, 2,3,4,6-tetrachloronitrobenzene]
CC50 [1]: 80 µM
IC50 [2, 4]: > 200 µM

Nc1ccc([N+](=O)[O-])cc1Cl [2-chloro-4-nitroaniline]
response vs control in vivo at 100 mg/kg ([3]; ip): 171%

O=[N+]([O-])c1cc(Cl)c(Cl)cc1Cl [Compound E11, 1,2,4-trichloro-5-nitrobenzene]
CC50 [1]: > 200 µM
IC50 [2, 4]: > 200 µM

2-glutathionyl-3,5-dinitrobenzenesulfonic acid
T/C% ([3]; ip): 242%

O=C(O)c1cc(Cl)ccc1Cl [Compound C-12, 2,5-dichlorobenzoic acid]
CC50 [1]: > 200 µM
response vs control in vivo at 100 mg/kg ([3]; ip): 171%

Nc1c(Cl)cc([N+](=O)[O-])cc1[N+](=O)[O-] [6-chloro-2,4-dinitroaniline]
T/C% ([3]; ip): 87%

Nc1c([N+](=O)[O-])cc(Cl)cc1[N+](=O)[O-] [4-chloro-2,6-dinitroaniline]
T/C% ([3]; ip): 87%
